| melting point [°C] | Compound |
| --- | --- |
| 189 to 192 | CC(=O)Nc1cc(C(=O)c2ccc(S(=O)(=O)CCO)c(NC(C)=O)c2)ccc1S(=O)(=O)CCO |
| 88 to 89 | COc1cc(Oc2ccc(Cl)cc2)ccc1[N+](=O)[O-] |
| 151 to 152 | Cc1nnc(-c2ccc3occ(-c4cnn(Cc5ccccc5)c4)c3c2)o1 |
| 181 to 182 | Cc1ccc(C(=O)NCCN(C)C)cc1-n1c(C)cc(OCc2ccccc2CNC(=O)Nc2cc(C(C)(C)C)nn2-c2ccc(O)c(Cl)c2)c(Cl)c1=O |
| 161 to 163 | COc1cc2c(cc1OC)C(CCCl)OCC2 (centres undefined) |
| 162 to 163 | Cc1cc(C)c2c(c1)c(-c1ccccc1Cl)c(C(=O)O)c(=O)n2C |
| 182 to 183 | OCC1OC(n2cnc3c(NCc4ccccc4Cl)ncnc32)C(O)C1O (centres undefined) |
| 220 to 222 | COc1ccc(C(=O)N2CCc3cc(S(=O)(=O)N4CC(c5ccccc5)NC4=O)ccc32)cc1 (centres undefined) |
| 166 to 167 | Cc1nnc(Cl)c(-c2c(F)cccc2Cl)c1-c1ccc(Cl)nc1 |
| 136 to 139 | CCCc1nc2c(N)nc3cc(OCCNC(=O)OC(C)(C)C)ccc3c2s1 |
| 133 to 135 | N#CN=C(Nc1cccnc1)NC(NC(=O)c1ccccc1)C(Cl)(Cl)Cl (centres undefined) |
| 108 to 109 | Cc1cc(Cl)cc2c(-c3ccccc3)onc12 |
| > 300 | O=C(c1ccccc1)c1ccc2nc3[nH]c(=O)[nH]c3cc2c1 |
| 216 to 217 | Nc1nc(N)nc(C2CC3CCC2C3)n1 (centres undefined) |
| 188 to 190 | Cc1nc(SCc2ccc(C(=O)O)s2)sc1CC(=O)O |
| > 250 | CC(=O)Nc1ccccc1-n1cc2c(c1-c1ccccc1)c(=O)n(C)c(=O)n2C |
| 225 to 226 | CS(=O)(=O)c1ccc(-c2cnn(Cc3ccc(O)cc3)c(=O)c2-c2ccc(F)cc2)cc1 |
| 210 to 211 | CCc1cn(C2OC(CNC(=O)C(C)Oc3c(Cl)cc(Cl)c(OC)c3Cl)C(O)C2F)c(=O)[nH]c1=O (centres undefined) |
| 204 to 208 | Cn1c(C(F)(F)F)cc(=O)n(C(c2ccc3c(c2)C(=O)NC3=O)c2nsc3ccccc23)c1=O (centres undefined) |
| 122 to 124 | COCCNC(=O)c1ccc(C(=O)N2CCN(c3ncccc3NC(C)C)CC2)nc1 |
| 204 to 205 | O=C(Nc1ccc(-n2nc(C(F)(F)F)cc2C(F)(F)F)cc1)c1ccccc1C(=O)c1ccccc1 |
| 75 to 77 | CC(C)(C)C1=NN=C(N)SC1 |
| 150 to 151 | CS(=O)(=O)c1ccc(-c2nc(C(F)(F)F)sc2-c2ccc(F)cc2)cc1 |

| melting point [°C] | Compound |
| --- | --- |
| 108 to 110 | COc1ccc2c(OC)c(C(C)C)cc(Br)c2c1 |
| 101 to 104 | N#Cc1cccc(OS(N)(=O)=O)c1 |
| 99 to 100 | CC(C)Oc1ccc(CCCOc2cc(CCC(=O)O)n(Cc3ccccc3)n2)c(Oc2ncc(C(F)(F)F)cc2Cl)c1 |
| 65 to 69 | COC1(c2ccc(Sc3ccc4c(c3)OCC(=O)N4C)s2)CCOCC1 |
| 105 | COc1cc(Cl)c(Cl)cc1Oc1ccc(Cl)cc1 |
| 187 to 188 | O=C(Cn1cccc(OCc2ccccc2)c1=O)ON1C(=O)CCC1=O |
| 102 to 104 | Cc1c(C)c2c(c(C)c1N)CC(C)(CNCCN1CCCCC1)O2 (centres undefined) |
| 195 to 197 | O=Cc1cccc([N+]([O-])=Cc2cccc([N+](=O)[O-])c2)c1 |
| 127 to 128 | NC(=O)N(O)CC=Cc1cccc(F)c1Sc1ccc(F)cc1 |
| 116 to 118 | CCc1cc(OC)cc(C(=O)O)c1C(=O)OC |
| 178 to 180 | CC(C)COc1ccc(C(=O)N/C(=C\c2ccc(C(C)C)cc2)C(=O)NCCO)cc1 |
| 179 to 181 | O=[N+]([O-])c1ccc2c(c1)N=Cc1ccccc1O2 |
| 164 to 166 | N#Cc1c(Br)cc(Br)c(CCC(=O)O)c1Br |
| 202 to 204 | C#CCOc1ccc(C)cc1S(=O)(=O)NC(=O)Nc1nc(Cl)cc(OC)n1 |
| 209 to 211 | Cn1ccc(C(=O)c2sc(NC(=O)c3ccncc3)nc2-c2ccco2)c1 |
| 128 to 129 | COCOc1c(OC)cc(C=CC(=O)c2c(OC)cc(OC)c(CC=C(C)C)c2O)cc1OC |
| 169 to 170 | CC(CC(C(O)CC(C)(C)O)N(C)C)C1CCC2C(O)CCCC12C (centres undefined) |
| 158 to 160 | O=C(NN=C1c2ccc(F)cc2CCC1c1ccccc1)Nc1ccc(C(F)(F)F)cc1 (centres undefined) |
| 112 to 114 | CCC(C)(C)NC(Nc1ccc2ncsc2c1)=C(C#N)S(C)(=O)=O |
| 96 to 98 | COC(=S)c1cc(N)ccc1C |
| 197 to 199 | O=S(=O)(Nc1ncnc(Cl)c1Cc1ccc2ccccc2c1)c1ccc(Cl)cc1 |
| 235 to 237 | CC(C)(C)c1cc(OCc2ccc(-c3nnn[nH]3)cc2)cc(C(C)(C)C)c1O |
| < 48 | COc1cccc(NC(=O)C(C)(C)C)c1C(C)=O |

| melting point [°C] | Compound |
| --- | --- |
| 60 to 62 | N=c1c2ccccc2ccc2ccccc12 |
| 73 to 75 | CCCCCCCCCCCCOc1ccc(C2SCCCS2)cc1OCCCCCCCCCCCC |
| 134 to 135 | COc1ccc(C2Sc3ccccc3N(CCN(C)C)C(=O)C2OC(C)=O)cc1 (centres undefined) |
| 91 to 94 | CCOC(=O)C(=O)c1ccc(-c2ccc(-c3ccccc3)cc2)o1 |
| 84 to 86 | C=C1c2ccccc2CC(=O)c2ccccc21 |
| 118 | OC(c1ccccc1)c1ccc2cccnc2c1 (centres undefined) |
| 142 to 143 | COC(=O)c1ccc(/C=C/c2nc(-c3ccco3)oc2C)cc1 |
| 160 to 162 | O=C1CCC(N2Cc3c(OCc4ccc(CSc5nc6ccccc6[nH]5)cc4)cccc3C2=O)C(=O)N1 (centres undefined) |
| 104 to 106 | Cc1c(-c2ccc(OCc3ccccc3)cc2)n(Cc2ccc(OCCCN3CCCCC3)cc2)c2ccc(OCc3ccccc3)cc12 |
| 163 to 165 | C(CCc1ccccc1)=C1CCN(Cc2nc3ccccc3[nH]2)CC1 |
| 87 to 90 | O=C(O)c1cc(F)c(F)c(C(F)(F)F)c1F |
| 206 to 208 | CC(C)=NOCc1nc2c(N)nc(C)c(C)c2n1CCCCNC(=O)c1ccccc1 |
| > 310 | Cc1nc(NCC(F)(F)F)c2nc(-c3ccccc3)cc-2[nH]1 |
| 58 to 60 | COCCN(CCOC)CCc1ccc(Nc2ncc3c(n2)-c2ccccc2C(c2cccc(Br)c2)C3)cc1 (centres undefined) |
| 136 to 137 | O=C(c1ccccc1)c1ccc(N2CCN(c3ccncc3)CC2)cc1 |
| 92 to 93 | CCOC(=O)C=Cc1ccc(OCc2csc(-c3ccccc3)n2)c(OC)c1 |
| 143 to 146 | CC(C)(C)c1cc(CO)nn1-c1ccc(S(C)(=O)=O)cc1 |
| 177 to 179 | Cc1ccc(N2CN(c3ccccc3)C3=NN=CC3=C2Cl)cc1 |
| 59 to 60 | COc1cc2c(c(OC)c1/C=C/c1ccc(CN)cc1)C(C)(C)CCC2(C)C |
| 84 to 86 | CCCCCCCCCCCc1cc2ccc(C(=O)OCC)cc2[nH]1 |
| 122 to 123 | CSC(=Cc1cnn(-c2c(Cl)cc(C(F)(F)F)cc2Cl)n1)S(C)=O (centres undefined) |
| 120 to 121 | CC(=O)NC(CF)COC1CCN(c2nc3ccc(OCC4CC4)cc3o2)CC1 (centres undefined) |
| 85 | Cc1cc(O)c(O)cc1CC=Cc1ccccc1 |

| melting point [°C] | Compound |
| --- | --- |
| 120 to 134 | COCCNC(=O)c1cccc(-c2cccc3cc(Cc4cccc(Cl)c4)sc23)c1 |
| 94 to 95 | CC(C)N(CCS(=O)(=O)c1ccc(F)cc1)C(=O)Oc1ccccc1 |
| 106 to 113 | CN=C(SC)N(C)Cc1cccnc1Cl |
| 234 to 236 | O=C1OC(=O)c2c1cccc2N1C(=O)CCCC1=O |
| 132 | O=c1c2cccnc2c(-c2cccc([N+](=O)[O-])c2)nn1Cc1ccccc1 |
| 166 to 168 | COc1ccc(C(=O)N2c3ccccc3C(N3CCSc4ccccc43)=CC2C)cc1OC (centres undefined) |
| 182 to 184 | C[C@@H](n1ncn(-c2ccc(-n3cncn3)cc2)c1=O)[C@](O)(Cn1cncn1)c1ccc(F)cc1F |
| 177 to 179 | CCOC(=O)c1cn(C2CC2)c2nc(N3C[C@@H](CN(C)C(=O)C(F)(F)F)[C@@H](F)C3)c(F)cc2c1=O (relative stereo) |
| 89 to 92 | Cn1c(C(F)(F)F)cc(=O)n(-c2cc(OC(=O)CCl)c(Cl)cc2F)c1=O |
| 141 to 144 | CC(Oc1ncn(-c2cccc(Br)c2)n1)C(N)=O (centres undefined) |
| 190 to 191 | CCc1c(C(C)C)nc(C(C)C)c(C(C)O)c1-c1ccc(F)cc1O (centres undefined) |
| 191 | Cc1cc2nnn(C(=O)N3CCOCC3)c2cc1C |
| 71 to 71.9 | CC(C)(C)OC(=O)CCOCCCc1cccc(-c2nc(=O)c3ccccc3s2)n1 |
| 220 to 221 | c1ccc2c3cncc-3cncc2c1 |
| 68 | CC(C)(C)C1OCC(S)(CCO)CO1 (centres undefined) |
| 174 to 176 | O=C(O)Cc1c(C(=O)O)c2cc(Oc3ccc(Cl)c(F)c3)ccc2n1-c1ccccc1 |
| 147 to 150 | Nn1cnn(C2CCc3ccccc3C2)c1=S (centres undefined) |
| 90 to 94.8 | CCOC(=O)CCCOc1cccc2cc(/C(C)=C/C(=O)N3CCOCC3)oc12 |
| 140 to 142 | CCC(=O)OC1(C(=O)CCl)C(C)CC2C3CCC4CC(=O)CCC4(C)C3=CCC21C (centres undefined) |
| 127 to 129 | Nc1nc(N2CCC2)c2ncn(C3CC(F)C(CO)O3)c2n1 (centres undefined) |
| 44 to 45 | c1cncc(-c2nccs2)c1 |
| 186 to 188 | COc1ccc(N2CCN(c3ccc([N+](=O)[O-])nc3)CC2)cc1 |
| 88 to 91 | CCOC(=O)/C=C/S(=O)(=O)c1ccc(C(C)(C)C)cc1 |

| Compound | melting point [°C] |
| --- | --- |
| c1c2c(cc3c1OCO3)CCNCC2 | 82 to 84 |
| CCN1CCC(=O)C(C(c2ccccc2)c2ccccc2)C1 (centres undefined) | 54 to 58 |
| O=Cc1ccc(C2=NOC(c3cc(Cl)cc(Cl)c3)(C(F)(F)F)C2)cc1Cl (centres undefined) | 129 to 130 |
| C[C@](O)(COc1ccc(C#N)cc1)C(=O)Nc1ccc(C#N)c(Cl)c1 | 103 to 105 |
| CNC(=O)c1cc(C#N)cc(C)c1NC(=O)c1cc(C(F)(F)F)nn1-c1ncccc1Cl | 214 to 216 |
| CN1C2CCCC1CC(c1ccc(I)nn1)C2 (centres undefined) | 163 to 166 |
| O=C(NN1CCCCC1)c1nn(-c2ccccc2-c2ccccc2Cl)c2c1C1CC3CC(C1)CC2C3 | 206 |
